Source: patent US12398107B2, “Fungicidal nitroanilino substituted pyrazoles” (FMC Corporation, priority 2018, dated 2025)

Assays:
Type in all cases: in vivo
[1] = test system: Blumeria graminis f. sp. tritici; test: Test C: wheat powdery mildew, preventive spray on wheat seedlings; conditions: rated after 8 days, 100 = 100% disease control, 0 = no control; for Test C disease control rating (wheat powdery mildew) / pest or weed control at 50 ppm: 50 ppm
Summary of the method: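 Compound dissolved in acetone (3% of final volume), then suspended in 50/50 acetone/water with 250 ppm PEG400 and sprayed to run-off on wheat seedlings. Inoculated next day with B. graminis f. sp. tritici spore dust, kept 8 days at 20° C; visual rating, 100 = full control, 0 = none, relative to controls.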

Alternaria solani = test: Test F: tomato early blight, preventive spray on tomato seedlings; conditions: 100 = 100% disease control, 0 = no control; for Test F disease control rating (tomato early blight) / pest or weed control at 50 ppm: 50 ppm
Summary of the method: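 Compounds in acetone/water (50/50) with 250 ppm PEG400, dosed in ppm, sprayed to run-off on tomato seedlings; next day inoculated with A. solani spores. Held 48 h saturated at 27° C, then 3 days at 20° C; visual rating 0–100% disease control relative to controls.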

Septoria tritici = test: Test A: wheat leaf blotch, preventive spray on wheat seedlings; conditions: 100 = 100% disease control, 0 = no control relative to controls; for Test A disease control rating (wheat leaf blotch) / pest or weed control at 50 ppm: 50 ppm
Summary of the method: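 Compounds were suspended in acetone/water (50/50) with 250 ppm PEG400 and sprayed to run-off on wheat seedlings. The next day the seedlings were inoculated with Septoria tritici spores, held 48 h at 24 °C in saturated humidity, then 17 days at 20 °C. Disease control was rated 0–100 relative to controls.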

Phakopsora pachyrhizi = test: Test D: Asian soybean rust, preventive spray on soybean seedlings; conditions: 100 = 100% disease control, 0 = no control; for Test D disease control rating (Asian soybean rust) / pest or weed control at 50 ppm: 50 ppm
Summary of the method: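 Soybean seedlings sprayed to run-off with compound suspension (ppm, in 50/50 acetone/water with 250 ppm PEG400), inoculated next day with P. pachyrhizi spores, held 24 h saturated at 22°C then 8 days at 22°C. Visual rating 0-100% disease control relative to controls.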

[2] = test system: Puccinia recondita f. sp. tritici; test: Test B: wheat leaf rust, preventive spray on wheat seedlings; conditions: 100 = 100% disease control, 0 = no control relative to controls; for Test B disease control rating (wheat leaf rust) / pest or weed control at 50 ppm: 50 ppm
Summary of the method: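 Compounds in acetone/water (50/50) with 250 ppm PEG400, sprayed to run-off on wheat seedlings at stated ppm; inoculated next day with P. recondita spores. Held 24 h saturated at 20° C., then 7 days in growth chamber at 20° C.; rating 0–100 = % disease control vs controls.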

Botrytis cinerea = test: Test E: tomato Botrytis, preventive spray on tomato seedlings; conditions: 100 = 100% disease control, 0 = no control; for Test E disease control rating (tomato Botrytis) / pest or weed control at 50 ppm: 50 ppm
Summary of the method: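 Tomato seedlings sprayed to run-off with compound (ppm) in acetone/water with 250 ppm PEG400, then inoculated next day with B. cinerea spores. Held 48 h at 20 °C in saturated atmosphere, then 3 days at 24 °C. Visual rating 0–100% disease control relative to untreated controls.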

[3] = Blumeria graminis, 192 h, read-out: Test C disease control rating (wheat powdery mildew)
[4] = Alternaria solani, read-out: Test F disease control rating (tomato early blight)
[5] = Zymoseptoria tritici, read-out: Test A disease control rating (wheat leaf blotch)
[6] = Phakopsora pachyrhizi, read-out: Test D disease control rating (Asian soybean rust)
[7] = read-out: Test B disease control rating (wheat leaf rust)
[8] = Botrytis cinerea, read-out: Test E disease control rating (tomato Botrytis)

Row | Compound | Test C disease control rating (wheat powdery mildew) [1] [%] | Test F disease control rating (tomato early blight) (Alternaria solani) [%] | Test A disease control rating (wheat leaf blotch) (Septoria tritici) [%] | Test D disease control rating (Asian soybean rust) (Phakopsora pachyrhizi) [%] | Test B disease control rating (wheat leaf rust) [2] [%] | Test E disease control rating (tomato Botrytis) (Botrytis cinerea) [%] | pest or weed control at 10 ppm ([1]; Blumeria graminis, 192 h, 10 ppm, read-out: Test C disease control rating (wheat powdery mildew)) [%] | pest or weed control at 50 ppm [1, 3] [%] | pest or weed control at 10 ppm (Alternaria solani; Alternaria solani, 10 ppm, read-out: Test F disease control rating (tomato early blight)) [%] | pest or weed control at 50 ppm (Alternaria solani; [4]) [%] | pest or weed control at 10 ppm (Septoria tritici; Zymoseptoria tritici, 10 ppm, read-out: Test A disease control rating (wheat leaf blotch)) [%] | pest or weed control at 50 ppm (Septoria tritici; [5]) [%] | pest or weed control at 10 ppm (Phakopsora pachyrhizi; Phakopsora pachyrhizi, 10 ppm, read-out: Test D disease control rating (Asian soybean rust)) [%] | pest or weed control at 50 ppm (Phakopsora pachyrhizi; [6]) [%] | pest or weed control at 10 ppm ([2]; 10 ppm, read-out: Test B disease control rating (wheat leaf rust)) [%] | pest or weed control at 50 ppm [2, 7] [%] | pest or weed control at 10 ppm (Botrytis cinerea; Botrytis cinerea, 10 ppm, read-out: Test E disease control rating (tomato Botrytis)) [%] | pest or weed control at 50 ppm (Botrytis cinerea; [8]) [%]
1 | COc1ccc(-c2c(C)nn(C)c2Nc2c(Cl)cccc2[N+](=O)[O-])c(Cl)c1 [Compound 184] | 21 | 26 | 100 | 0 | 100 | 100 | – | – | – | – | – | – | – | – | – | – | – | –
2 | CCc1nn(C)c(Nc2c(F)cccc2[N+](=O)[O-])c1-c1ccc(F)cc1Cl [Compound 72, 4-(2-chloro-4-fluorophenyl)-N-(2-fluoro-6-nitrophenyl)-3-ethyl-1-methyl-1H-pyrazol-5-amine] | – | – | – | – | – | – | 81 | 99 | 63 | 99 | 100 | 100 | 12 | 31 | 85 | 100 | 98 | 98
3 | COc1ccc(Nc2c(-c3c(F)cc(C#N)cc3F)c(C)nn2C)c([N+](=O)[O-])c1 [Compound 150] | 98 | 99 | 100 | 13 | 100 | 100 | – | – | – | – | – | – | – | – | – | – | – | –
4 | Cc1nn(C)c(Nc2c(Cl)cc(Cl)cc2[N+](=O)[O-])c1-c1ccc(F)cc1Br [Compound 37] | 98 | 78 | 100 | 0 | 100 | 88 | – | – | – | – | – | – | – | – | – | – | – | –
5 | Cc1nn(C)c(Nc2c(F)cc(Cl)cc2[N+](=O)[O-])c1-c1ccc(Cl)cc1Cl [Compound 11] | 97 | 99 | 100 | 0 | 98 | 98 | – | – | – | – | – | – | – | – | – | – | – | –
6 | COc1cc(F)c(-c2c(C)nn(C)c2Nc2c(Cl)cc(Cl)cc2[N+](=O)[O-])c(F)c1 [Compound 82] | 58 | 97 | 100 | 59 | 100 | 96 | – | – | – | – | – | – | – | – | – | – | – | –
7 | Cc1cccc([N+](=O)[O-])c1Nc1c(-c2c(F)cc(F)cc2Cl)c(C)nn1C [Compound 153] | 99 | 72 | 99 | 73 | 100 | 99 | – | – | – | – | – | – | – | – | – | – | – | –
8 | Cc1nn(C)c(Nc2c(Br)cccc2[N+](=O)[O-])c1-c1ccc(C#N)cc1Cl [Compound 125] | 0 | 9 | 100 | 0 | 96 | 99 | – | – | – | – | – | – | – | – | – | – | – | –
9 | Cc1nn(C)c(Nc2c(Cl)cc(F)cc2[N+](=O)[O-])c1-c1ccc(C#N)cc1Cl [Compound 18, 3-chloro-4-[5-[(2-chloro-4-fluoro-6-nitrophenyl)amino]-1,3-dimethyl-1H-pyrazol-4-yl]benzonitrile] | – | – | – | – | – | – | – | 89 | – | 99 | – | 100 | – | 92 | – | 100 | – | 100
10 | Cc1nn(C)c(Nc2c(Cl)cc(F)cc2[N+](=O)[O-])c1-c1ccc(Cl)cc1Cl [Compound 10] | 48 | 9 | 100 | 0 | 99 | 68 | – | – | – | – | – | – | – | – | – | – | – | –
11 | COc1ccc(-c2c(C)nn(C)c2Nc2c(F)cc(Cl)cc2[N+](=O)[O-])c(Cl)c1 [Compound 81] | 89 | 99 | 100 | 0 | 99 | 95 | – | – | – | – | – | – | – | – | – | – | – | –
12 | Cc1nn(C)c(Nc2c(F)cc(F)cc2[N+](=O)[O-])c1-c1c(F)cccc1F [Compound 75] | 90 | 98 | 100 | 0 | 99 | 57 | – | – | – | – | – | – | – | – | – | – | – | –
13 | Cc1nn(C)c(Nc2ccccc2[N+](=O)[O-])c1-c1c(F)cc(F)cc1Br [Compound 154] | 98 | 51 | 99 | 0 | 80 | 99 | – | – | – | – | – | – | – | – | – | – | – | –
14 | Cc1nn(C)c(Nc2c([N+](=O)[O-])ccc(F)c2F)c1-c1ccc(F)cc1Cl [Compound 7] | 94 | 89 | 100 | 96 | 99 | 99 | – | – | – | – | – | – | – | – | – | – | – | –
15 | Cc1nn(C)c(Nc2c(F)cccc2[N+](=O)[O-])c1-c1ccc(Cl)cc1F [Compound 12] | 81 | 53 | 100 | 0 | 99 | 97 | – | – | – | – | – | – | – | – | – | – | – | –
16 | Cc1cc(Cl)c(Nc2c(-c3ccc(F)cc3F)c(C)nn2C)c([N+](=O)[O-])c1 [Compound 15] | 98 | 53 | 100 | 61 | 100 | 99 | – | – | – | – | – | – | – | – | – | – | – | –
17 | Cc1nn(C)c(Nc2ccccc2[N+](=O)[O-])c1-c1ccc(F)cc1Br [Compound 139] | 76 | 33 | 98 | 0 | 86 | 100 | – | – | – | – | – | – | – | – | – | – | – | –
18 | Cc1nn(C)c(Nc2c(F)cc(F)cc2[N+](=O)[O-])c1-c1c(F)cccc1Cl [Compound 39] | 99 | 99 | 100 | 73 | 100 | 88 | – | – | – | – | – | – | – | – | – | – | – | –
